Source: US20200016159A1, “N3-CYCLICALLY SUBSTITUTED THIENOURACILS AND USE THEREOF” (Bayer Aktiengesellschaft, priority 2016, published 2020)
pIC50: −log10 of the molar value.

Biological target: T1, human adenosine A2b receptor (Homo sapiens, UniProt P29275)
T1 sequence (P29275 1-332): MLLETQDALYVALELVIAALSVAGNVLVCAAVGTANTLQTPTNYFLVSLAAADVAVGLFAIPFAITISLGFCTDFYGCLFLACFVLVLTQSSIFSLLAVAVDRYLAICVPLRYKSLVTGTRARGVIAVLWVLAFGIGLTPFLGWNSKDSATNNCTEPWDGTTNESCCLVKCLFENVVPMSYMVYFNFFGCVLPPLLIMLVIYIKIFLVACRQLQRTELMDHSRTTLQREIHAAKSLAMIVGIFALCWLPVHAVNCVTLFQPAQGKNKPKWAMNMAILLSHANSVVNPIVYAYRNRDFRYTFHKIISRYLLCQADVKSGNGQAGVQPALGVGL
Experiment: Cellular in vitro reporter gene test for A2b receptor activity (antagonism of NECA)
Format: cell-based
Set-up: expressed in transfected cells; host or cells: CHO-K1 (Chinese hamster ovary) with CRE-luciferase reporter
Conditions: recombinant CHO-K1 cells, CRE-luciferase reporter, co-incubation with EC50 concentration of NECA, 3 hours
Experimental: The identification of selective antagonists of the human adenosine A2b receptor and the quantification of the efficacy and selectivity of the compounds according to the invention was carried out with the aid of recombinant cell lines for the human adenosine receptors A1, A2a, A2b and A3. These cell lines were originally derived from an ovarepithelial cell of the hamster (Chinese Hamster Ovary, CHO-K1, American Type Culture Collection, Manassas, Va. 20108, USA). In addition to the respective recombinantly expressed adenosine receptor for testing the efficacy at the A1, A2a and A2b receptors, the cell lines contain a reporter gene construct where expression of the firefly (Photinus pyralis) luciferase is under the control of a promoter which can be activated via intracellular signal cascades by stimulation of the receptors with the (not subtype-selective) adenosine receptor agonist NECA (5′-N-ethylcarboxamidoadenosine) [S. J. Hill, J. G. Baker, S. Rhees, Curr. Opin. Pharmacol. 1, 526-532 (2001)].
In the case of the A2a and A2b cell lines, this is a minimal promoter having a plurality of cAMP-responsive elements (CRE). Stimulation of the Gs-coupled A2b or A2a receptors by NECA ultimately leads, via formation of cAMP, to CRE-dependent induction of luciferase expression, which is detected 3 hours after the start of the incubation with NECA using a detection solution in a suitable luminometer. For testing the antagonists, initially, in a pre-experiment, the concentration of NECA which, at the test day in question, results in half-maximum stimulation of luciferase expression (EC50 concentration) is determined. By joint incubation of this EC50 concentration of NECA with the substances to be tested, it is possible to determine their antagonistic activity.
Table 1 below lists the IC50 values from the A2b receptor assay for individual working examples (in some cases as means of a plurality of independent individual determinations and rounded to two significant figures; it may also be the case here that various independent preparations of the respective working example have been used): […]

Row | Compound | pIC50
1 | Cc1c(CN2CCNC2=O)sc2c1c(=O)n(C1CC1)c(=O)n2CC1CC1(F)F (racemic) [Example 19, 3-Cyclopropyl-1-[(2,2-difluorocyclopropyl)methyl]-5-methyl-6-[(2-oxoimidazolidin-1-yl)methyl]thieno[2,3-d]pyrimidine-2,4(1H,3H)-dione (racemate)] | 7.72
2 | Cc1c(CN2CCNC(=O)C2=O)sc2c1c(=O)n(C1CC1)c(=O)n2CC1CCCO1 (racemic) [Example 45, 3-Cyclopropyl-6-[(2,3-dioxopiperazin-1-yl)methyl]-5-methyl-1-(tetrahydrofuran-2-ylmethyl)thieno[2,3-d]pyrimidine-2,4(1H,3H)-dione] | 6.96
3 | Cc1c(Cn2cc[nH]c2=O)sc2c1c(=O)n(C1CC1)c(=O)n2CC1CCCO1 (racemic) [Example 46, 3-Cyclopropyl-5-methyl-6-[(2-oxo-2,3-dihydro-H-imidazol-1-yl)methyl]-1-(tetrahydrofuran-2-ylmethyl)thieno[2,3-d]pyrimidine-2,4(1H,3H)-dione] | 7.41
4 | Cc1c(CN2CCNC2=O)sc2c1c(=O)n(C1(C)CC1)c(=O)n2CC1CC1(F)F (racemic) [Example 63, 1-[(2,2-Difluorocyclopropyl)methyl]-5-methyl-3-(1-methylcyclopropyl)-6-[(2-oxoimidazolidin-1-yl)methyl]thieno[2,3-d]pyrimidine-2,4(1H,3H)-dione] | 7.92
5 | Cc1c(CN2CCNC2=O)sc2c1c(=O)n(C1CC1C)c(=O)n2CCC(F)(F)F (racemic) [Example 93, 5-Methyl-3-(2-methylcyclopropyl)-6-[(2-oxoimidazolidin-1-yl)methyl]-1-(3,3,3-trifluoropropyl)thieno[2,3-d]pyrimidine-2,4(1H,3H)-dione] | 8.74
6 | COCCn1c(=O)n(C2CC2C)c(=O)c2c(C)c(CN3CCNC3=O)sc21 (racemic) [Example 94, 1-(2-Methoxyethyl)-5-methyl-3-(2-methylcyclopropyl)-6-[(2-oxoimidazolidin-1-yl)methyl]thieno[2,3-d]pyrimidine-2,4(1H,3H)-dione] | 8.14
7 | Cc1c(CN2CCNC2=O)sc2c1c(=O)n(C1CC1(C)C)c(=O)n2CCCF (racemic) [Example 97, 3-(2,2-Dimethylcyclopropyl)-1-(3-fluoropropyl)-5-methyl-6-[(2-oxoimidazolidin-1-yl)methyl]thieno[2,3-d]pyrimidine-2,4(1H,3H)-dione] | 7.59
8 | Cc1c(Cn2nc[nH]c2=O)sc2c1c(=O)n(C1CC1)c(=O)n2CC1CCC(F)(F)C1 (racemic) [Example 209, 3-Cyclopropyl-1-[(3,3-difluorocyclopentyl)methyl]-5-methyl-6-[(5-oxo-4,5-dihydro-1H-1,2,4-triazol-1-yl)methyl]thieno[2,3-d]pyrimidine-2,4(1H,3H)-dione] | 6.70
9 | CCn1c(=O)n(C2CC2C)c(=O)c2c(C)c(CN3CCNC3=O)sc21 (racemic) [Example 224, 1-Ethyl-5-methyl-3-(2-methylcyclopropyl)-6-[(2-oxoimidazolidin-1-yl)methyl]thieno[2,3-d]pyrimidine-2,4(1H,3H)-dione] | 7.96
10 | CCCn1c(=O)n(C2CC2C)c(=O)c2c(C)c(CN3CCNC3=O)sc21 (racemic) [Example 227, 5-Methyl-3-(2-methylcyclopropyl)-6-[(2-oxoimidazolidin-1-yl)methyl]-1-propylthieno[2,3-d]pyrimidine-2,4(1H,3H)-dione] | 8.54

Next, values leading:

Row | pIC50 | Compound
11 | 6.89 | Cc1c(Cn2nc[nH]c2=O)sc2c1c(=O)n(C1CC1)c(=O)n2CC1CC1(F)F (racemic) [Example 20, 3-Cyclopropyl-1-[(2,2-difluorocyclopropyl)methyl]-5-methyl-6-[(5-oxo-4,5-dihydro-1H-1,2,4-triazol-1-yl)methyl]thieno[2,3-d]pyrimidine-2,4(1H,3H)-dione (racemate)]
12 | 7.46 | Cc1c(CN2CCNC2=O)sc2c1c(=O)n(C1CC1)c(=O)n2CC1CCCO1 (racemic) [Example 37, 3-Cyclopropyl-5-methyl-6-[(2-oxoimidazolidin-1-yl)methyl]-1-(tetrahydrofuran-2-ylmethyl)thieno[2,3-d]pyrimidine-2,4(1H,3H)-dione]
13 | 7.82 | Cc1c(CN2CCNC2=S)sc2c1c(=O)n(C1CC1)c(=O)n2CC1CCCO1 (racemic) [Example 40, 3-Cyclopropyl-5-methyl-1-(tetrahydrofuran-2-ylmethyl)-6-[(2-thioxoimidazolidin-1-yl)methyl]thieno[2,3-d]pyrimidine-2,4(1H,3H)-dione]
14 | 7.80 | Cc1c(CN2CCNC2=NC#N)sc2c1c(=O)n(C1CC1)c(=O)n2CC1CCCO1 (racemic) [Example 41, [1-{[3-Cyclopropyl-5-methyl-2,4-dioxo-1-(tetrahydrofuran-2-ylmethyl)-1,2,3,4-tetrahydrothieno[2,3-d]pyrimidin-6-yl]methyl}imidazolidin-2-ylidene]cyanamide]
15 | 8.00 | COC(=O)N=C1NCCN1Cc1sc2c(c1C)c(=O)n(C1CC1)c(=O)n2CC1CCCO1 (racemic) [Example 42, Methyl [1-{[3-cyclopropyl-5-methyl-2,4-dioxo-1-(tetrahydrofuran-2-ylmethyl)-1,2,3,4-tetrahydrothieno[2,3-d]pyrimidin-6-yl]methyl}imidazolidin-2-ylidene]carbamate]
16 | 6.96 | Cc1c(Cn2nc[nH]c2=O)sc2c1c(=O)n(C1CC1)c(=O)n2CC1CCCO1 (racemic) [Example 49, 3-Cyclopropyl-5-methyl-6-[(5-oxo-4,5-dihydro-1H-1,2,4-triazol-1-yl)methyl]-1-(tetrahydrofuran-2-ylmethyl)thieno[2,3-d]pyrimidine-2,4(1H,3H)-dione]
17 | 6.85 | Cc1c(Cn2nc[nH]c2=O)sc2c1c(=O)n(C1(C)CC1)c(=O)n2CC1CC1(F)F (racemic) [Example 66, 1-[(2,2-Difluorocyclopropyl)methyl]-5-methyl-3-(1-methylcyclopropyl)-6-[(5-oxo-4,5-dihydro-1H-1,2,4-triazol-1-yl)methyl]thieno[2,3-d]pyrimidine-2,4(1H,3H)-dione]
18 | 8.28 | Cc1c(CN2CCNC2=O)sc2c1c(=O)n(C1CC1C)c(=O)n2CCCF (racemic) [Example 90, 1-(3-Fluoropropyl)-5-methyl-3-(2-methylcyclopropyl)-6-[(2-oxoimidazolidin-1-yl)methyl]thieno[2,3-d]pyrimidine-2,4(1H,3H)-dione]
19 | 7.92 | Cc1c(CN2CCNC2=O)sc2c1c(=O)n(C1CC1(C)C)c(=O)n2CCC(F)(F)F (racemic) [Example 100, 3-(2,2-Dimethylcyclopropyl)-5-methyl-6-[(2-oxoimidazolidin-1-yl)methyl]-1-(3,3,3-trifluoropropyl)thieno[2,3-d]pyrimidine-2,4(1H,3H)-dione]
20 | 7.68 | COCCn1c(=O)n(C2CC2(C)C)c(=O)c2c(C)c(CN3CCNC3=O)sc21 (racemic) [Example 103, 3-(2,2-Dimethylcyclopropyl)-1-(2-methoxyethyl)-5-methyl-6-[(2-oxoimidazolidin-1-yl)methyl]thieno[2,3-d]pyrimidine-2,4(1H,3H)-dione]
21 | 8.48 | Cc1c(CN2CCNC2=O)sc2c1c(=O)n(C1CC1C)c(=O)n2C (racemic) [Example 221, 1,5-Dimethyl-3-(2-methylcyclopropyl)-6-[(2-oxoimidazolidin-1-yl)methyl]thieno[2,3-d]pyrimidine-2,4(1H,3H)-dione]
